In one data set the target is T1, Androgen receptor (Homo sapiens, UniProt P10275).
T1 sequence (P10275 whole entry): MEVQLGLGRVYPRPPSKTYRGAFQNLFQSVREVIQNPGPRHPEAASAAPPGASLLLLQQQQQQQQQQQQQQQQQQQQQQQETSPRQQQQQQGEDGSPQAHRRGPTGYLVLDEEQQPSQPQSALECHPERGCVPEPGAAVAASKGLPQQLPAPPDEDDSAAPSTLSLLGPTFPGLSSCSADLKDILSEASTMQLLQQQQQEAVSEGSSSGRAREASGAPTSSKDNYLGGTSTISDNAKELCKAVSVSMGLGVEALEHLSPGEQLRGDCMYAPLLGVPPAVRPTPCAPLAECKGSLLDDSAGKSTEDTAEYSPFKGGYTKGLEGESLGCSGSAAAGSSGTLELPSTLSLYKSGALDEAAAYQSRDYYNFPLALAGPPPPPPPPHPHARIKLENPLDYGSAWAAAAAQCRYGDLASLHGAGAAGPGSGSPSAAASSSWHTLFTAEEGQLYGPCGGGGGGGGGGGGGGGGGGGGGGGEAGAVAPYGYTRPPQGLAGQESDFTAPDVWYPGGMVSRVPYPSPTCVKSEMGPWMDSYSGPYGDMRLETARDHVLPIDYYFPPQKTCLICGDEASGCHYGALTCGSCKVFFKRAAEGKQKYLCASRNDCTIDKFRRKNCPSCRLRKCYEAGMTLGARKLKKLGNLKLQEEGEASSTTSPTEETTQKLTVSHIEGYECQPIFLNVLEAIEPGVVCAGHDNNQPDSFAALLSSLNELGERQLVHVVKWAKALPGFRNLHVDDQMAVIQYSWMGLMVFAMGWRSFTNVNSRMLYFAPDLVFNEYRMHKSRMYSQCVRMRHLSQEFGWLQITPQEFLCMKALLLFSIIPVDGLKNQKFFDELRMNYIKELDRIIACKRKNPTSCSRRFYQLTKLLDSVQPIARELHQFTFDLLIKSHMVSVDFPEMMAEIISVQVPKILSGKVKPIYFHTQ
Nature of the data set: Anti-androgenic activity at androgen receptor (unknown origin) expressed in HEK293 cells by BRET assay. It counts as cell-based. For orientation: BRET reads energy transfer from a luciferase to a nearby fluorophore.

The subject of data set [1] is LNCaP. In words: Antiproliferative activity against human LNCAP cells assessed as reduction in cell viability at 100 uM incubated for 5 days. It counts as functional, cell-based. As to conditions: time 5.0 day.
Data set [2] concerns the target T2, Histone deacetylase 1 (Homo sapiens, UniProt Q13547). Nature of the data set: Inhibition of purified human HDAC1 using Ac-Leu-Gly-(e-Ac)Lys-AMC by fluorometric HDAC assay.
The nature of data set [3]: Inhibition of purified human HDAC2 using Ac-Leu-Gly-(e-Ac)Lys-AMC by fluorometric HDAC assay.
For another data set, the system named is BPH-1. Nature of the data set: Antiproliferative activity against human BPH-1 cells assessed as reduction in cell viability at 1 to 100 uM incubated for 72 hrs. The settings on record: dose 1-100 µM. In kind it is functional, cell-based.
The target of data set [4] is Class 1 histone deacetylase (Homo sapiens) (UniProt Q13547+O15379+Q92769+Q9BY41). Nature of the data set: Inhibition of type I nuclear HDACs in human LNCaP cells assessed as induction of histone H3 and H4 acetylation at 10 uM by Western blotting. It counts as cell-based.
Chain of Class 1 histone deacetylase (Homo sapiens) (O15379 whole entry, looked up): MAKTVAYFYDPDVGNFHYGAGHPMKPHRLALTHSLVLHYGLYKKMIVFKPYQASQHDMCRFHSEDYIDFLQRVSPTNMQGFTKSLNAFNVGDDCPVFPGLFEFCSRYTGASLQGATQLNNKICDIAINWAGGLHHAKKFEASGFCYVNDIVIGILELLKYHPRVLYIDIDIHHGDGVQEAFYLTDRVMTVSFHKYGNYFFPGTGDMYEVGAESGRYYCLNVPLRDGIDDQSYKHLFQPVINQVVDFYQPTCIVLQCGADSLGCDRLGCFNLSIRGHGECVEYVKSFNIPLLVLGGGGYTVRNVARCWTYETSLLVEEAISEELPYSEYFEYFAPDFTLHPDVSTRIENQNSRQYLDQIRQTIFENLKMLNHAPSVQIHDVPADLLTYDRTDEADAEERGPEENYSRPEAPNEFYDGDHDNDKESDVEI
Chain of Class 1 histone deacetylase (Homo sapiens) (Q13547 whole entry, looked up): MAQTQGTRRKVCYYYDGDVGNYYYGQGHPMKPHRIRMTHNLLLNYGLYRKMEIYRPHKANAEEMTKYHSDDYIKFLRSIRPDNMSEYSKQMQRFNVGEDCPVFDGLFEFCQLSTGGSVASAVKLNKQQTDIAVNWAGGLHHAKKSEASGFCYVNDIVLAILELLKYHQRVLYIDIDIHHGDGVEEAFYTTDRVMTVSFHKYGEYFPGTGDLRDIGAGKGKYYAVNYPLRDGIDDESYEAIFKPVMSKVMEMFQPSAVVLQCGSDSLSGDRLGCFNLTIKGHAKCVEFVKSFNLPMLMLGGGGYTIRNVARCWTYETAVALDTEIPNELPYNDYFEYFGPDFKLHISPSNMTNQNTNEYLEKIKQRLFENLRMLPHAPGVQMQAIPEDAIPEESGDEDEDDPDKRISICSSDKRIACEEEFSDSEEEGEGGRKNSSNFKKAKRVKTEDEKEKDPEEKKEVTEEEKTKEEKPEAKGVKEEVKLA
Chain of Class 1 histone deacetylase (Homo sapiens) (Q92769 whole entry, looked up): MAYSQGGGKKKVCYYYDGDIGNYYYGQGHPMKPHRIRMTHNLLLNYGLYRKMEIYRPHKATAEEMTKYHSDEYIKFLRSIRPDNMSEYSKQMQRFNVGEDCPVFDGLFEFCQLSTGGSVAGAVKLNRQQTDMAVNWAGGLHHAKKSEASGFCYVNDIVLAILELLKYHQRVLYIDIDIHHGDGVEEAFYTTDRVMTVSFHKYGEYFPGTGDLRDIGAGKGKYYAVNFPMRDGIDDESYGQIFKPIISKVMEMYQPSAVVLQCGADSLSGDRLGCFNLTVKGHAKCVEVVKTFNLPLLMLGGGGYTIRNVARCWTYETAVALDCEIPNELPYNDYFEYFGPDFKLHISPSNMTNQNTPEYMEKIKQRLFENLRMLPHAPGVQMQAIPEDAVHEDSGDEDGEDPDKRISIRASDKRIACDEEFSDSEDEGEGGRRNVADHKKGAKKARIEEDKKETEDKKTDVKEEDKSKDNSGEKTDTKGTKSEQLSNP
Chain of Class 1 histone deacetylase (Homo sapiens) (Q9BY41 whole entry, looked up): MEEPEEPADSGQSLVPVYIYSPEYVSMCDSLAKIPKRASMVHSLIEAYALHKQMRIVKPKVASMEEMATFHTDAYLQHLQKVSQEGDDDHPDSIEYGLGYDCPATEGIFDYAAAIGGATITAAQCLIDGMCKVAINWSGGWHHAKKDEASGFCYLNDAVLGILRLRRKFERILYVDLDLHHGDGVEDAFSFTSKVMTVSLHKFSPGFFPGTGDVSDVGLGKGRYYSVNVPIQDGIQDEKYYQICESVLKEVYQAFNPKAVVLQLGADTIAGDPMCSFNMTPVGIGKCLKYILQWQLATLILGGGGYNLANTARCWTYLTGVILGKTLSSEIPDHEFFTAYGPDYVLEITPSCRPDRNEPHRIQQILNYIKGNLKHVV
In the next data set the test system is PC-3. In words: Antiproliferative activity against human PC-3 cells assessed as reduction in cell viability at 1 to 100 uM incubated for 72 hrs. In kind it is functional, cell-based. The settings on record: dose 1-100 µM.
Data set [5] relates to LNCaP. Nature of the data set: Antiproliferative activity against human LNCAP cells assessed as reduction in cell viability at 10 uM incubated for 5 days. It counts as functional, cell-based. As to conditions: time 5.0 day.
Data set [6] relates to LNCaP. Nature of the data set: Antiproliferative activity against human LNCAP cells assessed as reduction in cell viability at 100 uM incubated for 72 hrs. In kind it is functional, cell-based.
A short description of data set [7]: Antiproliferative activity against human BHPrS cells assessed as reduction in cell viability at 1 to 100 uM incubated for 72 hrs. The settings on record: dose 1-100 µM. In kind it is toxicity, cell-based.
Data set [8] relates to LNCaP. Nature of the data set: Antiproliferative activity against human LNCAP cells assessed as reduction in cell viability at 10 uM incubated for 72 hrs. It counts as functional, cell-based.
In data set [9] the target is T2, Histone deacetylase 1. Nature of the data set: Inhibition of purified human HDAC1 using Ac-Leu-Gly-(e-Ac)Lys-AMC pre-incubated for 18 hrs by fluorometric HDAC assay.

Each structure is given as a SMILES string. Calls of active or inactive are those of the source. The rule behind the calls is not given here. A value given as a limit tells only on which side of the number the result lay.

A word on the IC50: it is the midpoint of a concentration-inhibition curve.

T2 sequence (Q13547 whole entry): as the sequence (Q13547 whole entry, looked up) above

As for `CC1(C)C(=O)N(c2ccc(C#N)c(C(F)(F)F)c2)C(=S)N1CCCCCCC(=O)NO`, the results for the IC50 against Androgen receptor and on Histone deacetylase 1 [2] were 0.39 µM and 0.99 µM, respectively. In addition, the result in the data set on LNCaP [1] was Active.
The like results for `CC1(C)C(=O)N(c2ccc(C#N)c(C(F)(F)F)c2)C(=S)N1CCCC(=O)NO` were, in that order, 0.39 µM, 44.9 µM and “Active”.
The like results for `CC1(C)C(=O)N(c2ccc(C#N)c(C(F)(F)F)c2)C(=S)N1CCCCCC(=O)NO` were, in that order, 1.45 µM, 1.33 µM and “Active”.
In the case of `CC1(C)C(=O)N(c2ccc(C#N)c(C(F)(F)F)c2)C(=S)N1c1ccc(C(=O)Nc2ccccc2N)c(F)c1`, the values for the IC50 (on Androgen receptor; in data set [3]; on Histone deacetylase 1 [2]) were 1.7 µM, 2.5 µM and 2.86 µM, respectively.
With `CC1(C)C(=O)N(c2ccc(C#N)c(C(F)(F)F)c2)C(=S)N1c1ccc(C(=O)Nc2ccccc2N)cc1`, the result with BPH-1, in the data set on LNCaP [1], in the data set on PC-3, in the data set on LNCaP [5], with LNCaP [6] and with LNCaP [8] was Active. In addition, the concentration for half-maximal inhibition (IC50) is 0.98 µM against Androgen receptor and 1.33 µM against Histone deacetylase 1 [2]. In data set [4], the inhibition entry was “Active”. The Activity entry in data set [7] was “Non-Toxic”.
For `CC1(C)C(=O)N(c2ccc(C#N)c(C(F)(F)F)c2)C(=S)N1C12CC(CC(=O)Nc3ccccc3N)(C1)C2`, the figures for the IC50 at Androgen receptor and at Histone deacetylase 1 [2] were 0.19 µM and above 1000 µM, respectively.
`CC1(C)C(=O)N(c2ccc(C#N)c(C(F)(F)F)c2)C(=S)N1c1ccc(C(=O)Nc2ccccc2N)cn1`: the IC50 on Androgen receptor is 2.34 µM; at Histone deacetylase 1 [2], 6.51 µM.
Turning to `CC1(C)C(=O)N(c2ccc(C#N)c(C(F)(F)F)c2)C(=S)N1CCCCC(=O)NO`, the IC50 worked out at 1.17 µM on Androgen receptor and 3.09 µM at Histone deacetylase 1 [2]. Moreover, the result in the data set with LNCaP [1] was Active.
Regarding `CC1(C)C(=O)N(c2ccc(C#N)c(C(F)(F)F)c2)C(=S)N1c1ccc(C(=O)Nc2cc(-c3cccs3)ccc2N)cn1`, the figures for the 50% inhibitory concentration (IC50) on Androgen receptor and on Histone deacetylase 1 [2] were above 10 µM and 11.1 µM, respectively.
Regarding `CC1(C)C(=O)N(c2ccc(C#N)c(C(F)(F)F)c2)C(=S)N1c1ccc(C(=O)Nc2cc(-c3cccs3)ccc2N)nc1`, the IC50 against Androgen receptor is above 10 µM; on Histone deacetylase 1 [2], 3.67 µM.
In the case of `CC1(C)C(=O)N(c2ccc(C#N)c(C(F)(F)F)c2)C(=S)N1Cc1ccc(C(=O)Nc2ccccc2N)cc1`, the outcome in the data set with BPH-1, with PC-3, with LNCaP [6] and in the data set with LNCaP [8] was Active. In addition, the IC50 against Androgen receptor was determined as 0.28 µM; in [3], 1.6 µM; on Histone deacetylase 1 [2], 1.04 µM. For the same compound, the Activity entry in [7] is on record as “Non-Toxic”.
As to `CC1(C)C(=O)N(c2ccc(C#N)c(C(F)(F)F)c2)C(=S)N1c1ccc(C(=O)Nc2cc(-c3ccccc3)ccc2N)cn1`, the IC50 is above 10 µM on Androgen receptor and 2.39 µM against Histone deacetylase 1 [2].
Turning to `CC1(C)C(=O)N(c2ccc(C#N)c(C(F)(F)F)c2)C(=S)N1c1ccc(C(=O)Nc2cc(-c3ccccc3)ccc2N)cc1`, the IC50 at Histone deacetylase 1 [9] was 5.96 µM; at Androgen receptor it was above 10 µM.
`Nc1ccccc1NC(=O)c1ccc(CNC(=O)OCc2cccnc2)cc1` [ENTINOSTAT]: the IC50 at Androgen receptor is above 10 µM. The result with LNCaP [1] was Active.
In the case of `CC1(C)C(=O)N(c2ccc(C#N)c(C(F)(F)F)c2)C(=S)N1c1ccc(C(=O)Nc2ccccc2N)nc1`, the IC50 at Androgen receptor was found to be 0.75 µM; against Histone deacetylase 1 [2] it was 5.58 µM.
Regarding `CC1(C)C(=O)N(c2ccc(C#N)c(C(F)(F)F)c2)C(=S)N1c1ccc(C(=O)Nc2cc(-c3ccccc3)ccc2N)nc1`, the IC50 against Androgen receptor is above 10 µM; against Histone deacetylase 1 [2] it was above 1000 µM.

(Values after ChEMBL document CHEMBL5143530 (Bioorg Med Chem Lett, 2022).)
